From patent publication US7563905B2, “Triazole derivatives and method of using the same to treat HIV infections” (Wyeth, priority 2004, dated 2009)

What was measured:
[1] = molecular target: T1, HIV reverse transcriptase (Human immunodeficiency virus type 1 group M subtype B, UniProt P04585); assay: Inhibition of HIV reverse transcriptase (RNase H fluorescent probe assay), Table I; type: biochemical
T1 construct: HIV reverse transcriptase has an RNase H domain at the C-terminus of its p66 subunit
Text: RNase H is an enzyme responsible for the removal of RNA primers from leading and lagging strands during DNA synthesis. It is an important enzyme for the replication of bacterial, viral and human genomes. HIV reverse transcriptase has an RNase H domain at the C-terminus of its p66 subunit. […] The ability of the compounds of the present invention to inhibit RNase H, and more particularly HIV reverse transcriptase, may be determined by any means known in the art.
Preferably, the RNase H/HIV reverse transcriptase modulatory activity of the compounds of the present invention may be determined by the methods described in copending U.S. Provisional Patent Application No. 60/436,125, filed Dec. 19, 2002 and PCT International Publication No. WO/2004/059012, filed Dec. 22, 2003 for ASSAY FOR RNase ACTIVITY of Olson et al., incorporated herein by reference in its entirety. Specifically, the modulatory activity of a triazole derivative of the present invention may be determined by hybridizing a target nucleic acid to a fluorescently labeled oligonucleotide probe complementary to the target nucleic acid and containing a fluorophor at one terminus and a quenching group at the other terminus to obtain a probe-target hybrid, wherein (i) the unhybridized probe adopts a conformation that places the fluorophon and quencher in such proximity that the quencher quenches the fluorescent signal of the fluorophon, and (ii) the formation of the probe-target hybrid causes sufficient separation of the fluorophon and quencher to reduce quenching of the fluorescent signal of the fluorophon. Next, a first and second sample containing the probe-target hybrid are prepared. The probe-target hybrid of the first sample is then contacted with an RNase H enzyme (such as HIV reverse transcriptase) in an amount sufficient to selectively cleave the target nucleic acid and thereby release the intact probe. The probe-target hybrid of the second sample is also contacted with the RNase H enzyme in an amount sufficient to selectively cleave the target nucleic acid and thereby release the intact probe in the presence of a triazole derivative of the present invention. The release of the probe in each sample may then be detected by measuring the […] in the fluorescent signal of the fluorophon as compared to the signal of the probe-target hybrid. A comparison of the rate of the decrease in the fluorescent signal of the fluorophon in the two samples is made to determine whether there is a difference in the rate of the decrease in the two samples. […] This method is also useful to identify triazole derivatives of the present invention, wherein candidate derivatives are screened for their ability to modulate RNase/HIV reverse transcriptase activity.

[2] = molecular target: T2, HIV Reverse transcriptase (RT) 66/p51 (Human immunodeficiency virus type 1 group M subtype B, UniProt P04585); assay: RNA dependent DNA polymerase (RDDP) activity of HIV RT, polyrA-oligodT12-18 / 33P TTP incorporation filter assay; type: biochemical
T2 construct: HIV Reverse transcriptase (RT) 66/p51; purchased Worthington

SMILES	IC50 [1] [µM]	IC50 [2] [µM]
Clc1ccc(CSc2nnc(-c3cccs3)n2Cc2ccccc2)cc1 [Example 1, 4-benzyl-3-[(4-chlorobenzyl)thio]-5-thien-2-yl-4H-1,2,4-triazole]	1.3	
COc1ccc(CSc2nnc(-c3cccs3)n2Cc2ccccc2)cc1 [Example 13, 4-benzyl-3-[(4-methoxybenzyl)thio]-5-thien-2-yl-4H-1,2,4-triazole]	5.9	
Clc1ccc(CSc2nnc(-c3ccccc3)n2Cc2ccccc2)cc1 [Example 15, 4-benzyl-3-(4-chloro-benzylsulfanyl)-5-phenyl-4H-1,2,4-triazole]	6	
c1ccc(Cn2c(SCc3ccncc3)nnc2-c2cccs2)cc1 [Example 3, 4-{[(4-benzyl-5-thien-2-yl-4H-1,2,4-triazol-3-yl)thio}methyl}pyridine]	0.2	
Clc1ccc(CSc2nnc(-c3ccco3)n2Cc2ccccc2)cc1 [Example 10, 4-benzyl-3-[(4-chlorobenzyl)thio]-5-(2-furyl)-4H-1,2,4-triazole]	3.8	
Clc1ccc(CSc2nnc(-c3ccccn3)n2Cc2ccccc2)cc1 [Example 17, 2-[4-benzyl-5-(4-chloro-benzylsulfanyl)-4H-1,2,4-triazol-3-yl]pyridine]	23	
c1ccc(CSc2nnc(-c3cccs3)n2Cc2ccccc2)cc1 [Example 2, 4-benzyl-3-(benzylthio)-5-thien-2-yl-4H-1,2,4-triazole]	< 0.2	
FC(F)(F)c1ccc(CSc2nnc(-c3ccco3)n2-c2ccccc2)cc1 [Example 12, 3-(2-furyl)-4-phenyl-5-{[4-(trifluoromethyl)benzyl]thio}-4H-1,2,4-triazole]	4.7	
Cc1cn([C@H]2C[C@H](N=[N+]=[N-])[C@@H](CO)O2)c(=O)[nH]c1=O [AZT]		< 0.2
COc1ccc(CSc2nnc(-c3ccccc3)n2Cc2ccccc2)cc1 [Example 4, 4-benzyl-3-[(4-methoxybenzyl)thio]-5-phenyl-4H-1,2,4-triazole]	1	
COc1ccc(CSc2nnc(-c3ccccn3)n2Cc2ccccc2)cc1 [Example 16, 2-[4-benzyl-5-(4-methoxy-benzylsulfanyl)-4H-1,2,4-triazol-3-yl]pyridine]	7	
COc1ccc(CSc2nnc(-c3ccco3)n2Cc2ccccc2)cc1 [Example 9, 4-benzyl-3-(2-furyl)-5-[(4-methoxybenzyl)thio]-4H-1,2,4-triazole]	3.8	
c1ccc(CSc2nnc(-c3ccccc3)n2Cc2ccccc2)cc1 [Example 5, 4-benzyl-3-(benzylthio)-5-phenyl-4H-1,2,4-triazole]	1	
c1ccc(CSc2nnc(-c3ccco3)n2Cc2ccccc2)cc1 [Example 6, 4-benzyl-3-(benzylthio)-5-(2-furyl)-4H-1,2,4-triazole]	1.2	
c1ccc(CSc2nnc(-c3ccccn3)n2Cc2ccccc2)cc1 [Example 7, 2-[4-benzyl-5-(benzylthio)-4H-1,2,4-triazol-3-yl]pyridine]	1.7	
COc1ccc(Cn2c(SCc3ccc(C(F)(F)F)cc3)nnc2-c2ccco2)cc1 [Example 14, 3-(2-furyl)-4(4-methoxybenzyl)-5-{[4-(trifluoromethyl)benzyl]thio}-4H-1,2,4-triazole]	6.5	
c1ccc(Cn2c(SCc3ccncc3)nnc2-c2ccccn2)cc1 [Example 8, 2-[4-benzyl-5-[(pyridine-4-ylmethyl)thio)-4H-1,2,4-triazol-3-yl]pyridine]	2.6	
COc1ccc(Cn2c(SCc3ccccc3)nnc2-c2ccco2)cc1 [Example 18, 3-benzylsulfanyl-5-furan-2-yl-4-(4-methoxy-benzyl)-4H-1,2,4-triazole]	46	
